According to patent US20170253607A1, “LONG-ACTING HIV PROTEASE INHIBITOR” (Shionogi & Co., Ltd., priority 2014, published 2017):

The compounds below were run against HIV-1 PR (Human immunodeficiency virus type 1 group M subtype B, UniProt P04585) (assay: HIV-protease inhibitory activity assay (FRET peptide substrate)). Conditions: Test Example 1.
Format: biochemical
Protocol: Test Example 1: HIV-Protease Inhibitory Activity Assay
The HIV-1 PR assay was performed by using a FRET (Fluorescence Resonance Energy Transfer) peptide substrate (AnaSpec, Inc., Fremont, Calif.). Initially in the intact FRET peptide, the fluorescence of HiLyte Fluor 488 is quenched by QXL 520. Upon substrate cleavage by PR, the fluorescence is recovered and can be monitored. Test compounds diluted in DMSO was plated to the wells of 384-well plate. Then, mixed with assay buffer (0.1 mol/L NaAc containing 0.5 mol/L NaCl, 1 mmol/L EDTA, 1 mmol/L DTT, and 0.05% Tween 20, pH 4.8) in the presence or absence of HIV-1 PR (0.83 ng), and let it stand for 5 minutes at room temperature. Background fluorescence intensity was measured and let it stand for another 15 minutes at room temperature. The enzyme reaction was started by adding substrate diluted in assay buffer at final concentration of 2 μmol/L, and let it stand for 60 minutes at room temperature. After 60 minutes, the fluorescence intensity was measured. Fluorescence intensity was measured with excitation and emission wavelengths of 485 nm and 535 nm, respectively.
IC50 values were determined using non-linear regression four-parameter logistic equation, y=A+((B−A)/(1+((C/x)̂D))) where A=minimum inhibition, B=maximum inhibition, C=log IC50, D=slope factor, x=concentration of compound and y=% inhibition.

`COc1ccc(S(=O)(=O)N(CC(C)C)CC(O)C(Cc2ccc(NCc3ccc(-c4sc5c(c4C(=O)O)CC(C)(C)CC5)c(OC)c3)cc2)NC(=O)OC2COC3(C)OCCC23)cc1` (stereo not drawn) [Compound I-554] and `COc1ccc(S(=O)(=O)N(CC(C)C)CC(O)C(Cc2ccc(NCc3ccc(OC)c(-c4sc5c(c4C(=O)O)CC(C)(C)CC5)c3)cc2)NC(=O)OC2COC3(C)OCCC23)cc1` (stereo not drawn) [Compound I-293] are within 1.5-fold of each other in IC50: 1.77 nM for the first, 1.9 nM for the second.

`COc1ccc(S(=O)(=O)N(CC(C)C)CC(O)C(Cc2ccc(N(CCc3ccccc3)Cc3ccccc3-c3sc4c(c3C(=O)O)CC(C)(C)CC4)cc2)NC(=O)OC2COC3(C)OCCC23)cc1` (stereo not drawn) [Compound I-421] and `COc1ccc(S(=O)(=O)N(CC(C)C)CC(O)C(Cc2ccc(N(Cc3ccccc3-c3sc4c(c3C(=O)O)CC(C)(C)CC4)CC3CCCC3)cc2)NC(=O)OC2COC3(C)OCCC23)cc1` (stereo not drawn) [Compound I-456] are within 1.5-fold of each other in IC50: 14.7 nM for the first, 13.6 nM for the second.

`COc1ccc(S(=O)(=O)N(CC(C)C)CC(O)C(Cc2ccc(NCc3ccccc3C(=O)Nc3sc4c(c3C(=O)O)CC(C)(C)CC4)cc2)NC(=O)OC2COC3(C)OCCC23O)cc1` (stereo not drawn) [Compound I-891] and `COc1ccc(S(=O)(=O)N(CC(C)C)CC(O)C(Cc2ccc(N(C)Cc3ccc(C)cc3C(=O)Nc3sc4c(c3C(=O)O)CC(C)(C)CC4)cc2)NC(=O)OC2COC3(C)OCCC23)cc1` (stereo not drawn) [Compound I-745] are within 1.5-fold of each other in IC50: 2.88 nM for the first, 3.39 nM for the second.

First: CC1(C)CCc2sc(-c3ccc(CN(CC(O)C(Cc4ccccc4)NC(=O)OC4COC5(C)OCCC45)S(=O)(=O)c4ccc5ncsc5c4)cc3)c(C(=O)O)c2C1 (stereo not drawn) [Compound I-167]
Second: COc1ccc(S(=O)(=O)N(CC(C)C)CC(O)C(Cc2ccc(OCc3ncsc3-c3ccc(-c4sc5c(c4C(=O)O)CC(C)(C)CC5)cc3)cc2)NC(=O)OC2COC3(C)OCCC23)cc1 (stereo not drawn) [Compound I-111]
The IC50 of the first is 4.8-fold higher: 7.1 nM for the first, 1.48 nM for the second. The second is the more potent here.

First: COc1ccc(S(=O)(=O)N(CC(C)C)CC(O)C(Cc2ccc(OCc3ccccc3-c3ccc4[nH]c(=O)c(-c5ccc(Oc6ccccc6)cc5)c(O)c4c3)cc2)NC(=O)OC2COC3(C)OCCC23)cc1 (stereo not drawn) [Compound I-180]
Second: COc1ccc(S(=O)(=O)N(CC(C)C)CC(O)C(Cc2ccc(N(C)Cc3ccc(Oc4ccc(-c5sc6c(c5C(=O)O)CC(C)(C)CC6)c(C)c4)cc3)cc2)NC(=O)OC2COC3(C)OCCC23)cc1 (stereo not drawn) [Compound I-572]
The IC50 of the first is 11-fold lower: 2.71 nM for the first, 30 nM for the second.

Compared with `COc1ccc(S(=O)(=O)N(CC(C)C)CC(O)C(Cc2ccc(OCCNC(=O)C(=NO)c3cc(O)cc(Cl)c3)cc2)NC(=O)OC2COC3(C)OCCC23)cc1` (stereo not drawn) [Compound I-67], `COc1ccc(S(=O)(=O)N(CC(C)C)CC(O)C(Cc2ccc(-n3cccc3)cc2)NC(=O)OC2COC3(C)OCCC23)cc1` (stereo not drawn) [Compound I-521] is 1.5-fold higher in IC50: 1.88 nM for the first, 2.84 nM for the second. The first is the more potent here.

`CC(C)CN(CC(O)C(Cc1ccc(OCc2ccc(-c3ccc(F)cc3F)nc2C(=O)O)cc1)NC(=O)OC1COC2OCCC12)S(=O)(=O)c1ccc2ncsc2c1` (stereo not drawn) [Compound I-840] and `CC(C)CN(CC(O)C(Cc1ccc(OCc2ccc(-c3ccc(F)cc3F)cc2O)cc1)NC(=O)OC1COC2OCCC12)S(=O)(=O)c1ccc2ncsc2c1` (stereo not drawn) [Compound I-813] are within 1.5-fold of each other in IC50: 0.71 nM for the first, 1.06 nM for the second.

`COc1ccc(S(=O)(=O)N(CC(C)C)CC(O)C(Cc2ccc(Nc3ncc(-c4sc5c(c4C(=O)O)CC(C)(C)CC5)cn3)cc2)NC(=O)OC2COC3(C)OCCC23)cc1` (stereo not drawn) [Compound I-433] and `COc1ccc(S(=O)(=O)N(CC(C)C)CC(O)C(Cc2ccc(NCc3ccncc3-c3sc4c(c3C(=O)O)CC(C)(C)CC4)cc2)NC(=O)OC2COC3(C)OCCC23)cc1` (stereo not drawn) [Compound I-273] are within 1.5-fold of each other in IC50: 2.49 nM for the first, 2.25 nM for the second.

First: COc1ccc(S(=O)(=O)N(CC(C)C)CC(O)C(Cc2ccc(N(C)Cc3ccc(OC)cc3C(=O)Nc3sc4c(c3C(=O)O)CC(C)(C)CC4)cc2)NC(=O)OC2COC3(C)OCCC23)cc1 (stereo not drawn) [Compound I-683]
Second: COc1ccc(S(=O)(=O)N(CC(C)C)CC(O)C(Cc2ccc(N(C)Cc3cc(C(F)(F)F)ccc3C(=O)Nc3sc4c(c3C(=O)O)CC(C)(C)CC4)cc2)NC(=O)OC2COC3(C)OCCC23)cc1 (stereo not drawn) [Compound I-734]
The IC50 of the first is 2.7-fold lower: 5.74 nM for the first, 15.4 nM for the second. The first is the more potent here.
